The numbers were not newly measured in article PMC7657096 (Medical Mycology, 2020), which cites them from elsewhere.

Several values for one entry are separate records, joined by “and”; a condition that tells them apart may be missing. Equal values may be shown once. Read-outs that look alike come from different tables or passages of the source.

In data set [1] the test system is onychomycosis. The following applies: after 10 months following weekly application for 9 months.
Data set [2] concerns onychomycosis. Conditions: after 48 weeks following daily application for 48 weeks; two values.
The test system of data set [3] is onychomycosis. Conditions: topical, applied for 52 weeks; two values.
The test system of data set [4] is onychomycosis.
In data set [5] the test system is onychomycosis. The following applies: after 12 or 24 weeks of oral terbinafine treatment.
Data set [6] deals with onychomycosis. The following applies: topical solution applied daily for either 24 or 48 weeks.

For `CCC(C)(C)c1ccc(CC(C)CN2C[C@@H](C)O[C@@H](C)C2)cc1` (stereo partly shown) [amorolfine], the “mycological cure (negative culture and negative microscopy)” value in data set [1] is recorded as 8%.
`Cc1cc(C2CCCCC2)n(O)c(=O)c1` [ciclopirox]: the “mycological cure (negative culture and negative microscopy)” value in data set [2] was 29% and 36%.
Regarding `C=C1CCN([C@H](C)[C@](O)(Cn2cncn2)c2ccc(F)cc2F)CC1` [efinaconazole], the mycological cure in data set [3] was 53.4% and 55.2%.
For `OB1OCc2cc(F)ccc21` [tavaborole], in data set [4] (topical, applied for 52 weeks), the mycological cure is listed as 31.1%. In addition, in data set [4] (two phase III studies, daily topical treatment for 48 weeks, ref (57)), the negative culture is 87.0% and 85.4%.
In the case of `CN(C/C=C/C#CC(C)(C)C)Cc1cccc2ccccc12` [terbinafine], in data set [5], the “trial participants with negative culture after 24 weeks (168 days)” value is “approximately 80%”. Further, the mycological cure in data set [6] is 12.7–18.8%.
